In BindingDB's records for doi:10.1016/j.bmcl.2008.07.062 (The Scripps Research Institute, 2008):

Assays:
[1] = Inhibition of JAK3 expressed in mouse BAF3 cells assessed as cytotoxicity
[2] = Inhibition of Blk expressed in mouse BAF3 cells assessed as cytotoxicity

C=CC(=O)Nc1ccc2ncnc(Nc3cccc(Br)c3)c2c1
IC50 [1]: > 10 µM
IC50 [2]: > 10 µM
